Test results: US20200291082A1, “PREVENTION AND TREATMENT OF GRAFT-VERSUS-HOST-DISEASE WITH DEFENSINS” (priority 2017, published 2020)
Entries after “also recorded” stand apart in the source; their conditions may differ. No end group written: not given here.

Experiments:
[1] = test system: Dextran Sodium Sulphate induced colitis; experiment: therapeutic murine 14-day Dextran Sodium Sulphate induced colitis model (Example 5); type: in vivo, C57BL/6 mice
Experimental: Anti-inflammatory effect of s.c. administration of hBD2 versus intraperitoneal anti TNF-α and intraperitoneal dexamethasone in a therapeutic, murine, 14-day, Dextran Sodium Sulphate induced colitis model.
70 male C57BL/6 mice housed in groups of five per cage were allocated to 7 different treatment groups. All animals had their drinking water supplemented with DSS 2% for 14 days to induce colitis resulting in significant inflammation and injury of the colonic tissue. The animals were treated with hBD2, 0.1 mg/kg s.c. BID; 0.1 mg/kg s.c. OD or 1.2 mg/kg i.v. […]
A disease activity index (DAI) scoring system was applied for clinical assessment (FIG. 7). The animals were sacrificed on day 14 and colon removed for histological assessment employing a histological scoring system (FIG. 8)

[2] = test system: house dust mite model of allergic asthma; experiment: therapeutic intranasal versus oral hBD2 in murine house dust mite model of allergic asthma (Example 10); type: in vivo, BALB/c mice
Experimental: To determine and assess the efficacy of IN versus oral therapeutic intervention with defensins in a murine house dust mite model of allergic asthma.
Treatment regime: Female 7-10 weeks old BALB/c mice were randomly allocated into 7 study groups one day prior to study start and subcutaneously (SC) sensitized to house dust mite (100 μg HDM in 200 μL saline plus Freund's complete adjuvant in 0.9% saline). Mice were then intranasally (IN) challenged with HDM on day 14 (HDM 25 μg in 50 μL of saline). Dexamethasone was administered orally (1 mg/kg BID; 50 μL phosphate buffered saline (PBS)) on day 14. hBD2 was administered IN or orally (1.7 mg/kg TID IN; 0.4 mg/kg TID IN; 0.4 mg/kg TID orally, 50 μL phosphate buffered saline) on day 14. The initial dose was administered 60 minutes prior to challenge, and the subsequent doses approximately 6 hours apart (FIG. 5).
Airway inflammation: At 48 hours post challenge, bronchoalveolar lavage was performed washing the lungs with 3 volumes of cold PBS (0.4; 0.3 and 0.3 mL, total 1 mL). Total and differential leucocyte cell counts were determined on an automated haematological analyser Sysmex XT-2000iV.
Data are represented as airway resistance at […] methacholine and as dose responsive curves.
Lung sampling for cytokine analysis: After completion of every BAL, lungs were removed from the thorax, snap frozen in liquid nitrogen and stored frozen at −80 degrees Celsius until analysis of cytokine concentration of IL-1β, TNF-α, IL-6, IL-10 and IFNγ by ELISA.

[3] = test system: acute graft versus host disease following stem cell transplantation; experiment: prophylactic oral hBD-2 versus cyclosporine in murine model of acute graft versus host disease (Example 14); type: in vivo, BALB/c mice
Experimental: To determine and assess the efficacy of prophylactic treatment with oral hBD-2 versus cyclosporine in a murine model of acute graft versus host disease following stem cell transplantation.
Treatment regime: 20 female BALB/c mice were irradiated with 4.5 Gy (2×498 sec) at intervals of at least 4 hours on day 0. Bone marrow was harvested: hind limbs harvested from 2 female WT C57BL/6 mice aseptically. Skeletal muscle was removed and epiphysis cut away. Lumen of bone flushed with PBS and cells pelleted and taken up. Harvest of T-cells: spleens from 2 female WT C57BL/6 mice were meshed through a […] cell strainer into a PBS filled dish. Cells were taken up in PBS and transferred into a 50 mL falcon tube and spun down. Cells were taken up in 1 mL PBS and 20 μL of CD4 microbead+20 μL CD8 microbeads per spleen added for incubation for 20 min at 4 degrees C. Cells were washed with PBS and applied to MACS separation in order to positively select CD4+ and CD8+ cells. Positively selected T-cells were counted and taken up. Transplantation: directly after the second irradiation, all WT BALB/c recipient mice were injected with 5×1.000.000 BM cells (50 μL) i.v. into the retroorbital venous plexus under isoflurane anesthesia. 20 BALB/c mice were treated with 1.2 mg of hBD2/kg BW/day (n=7); 50 mg cyclosporine/kg BW on days 0, 3, 6 and 9 (n=7) or 100 μL PBS per day vial oral gavage (n=6) from day 0-10.
The mice were weighed at regular intervals during the study and survival was monitored for 90 days.

[4] = test system: acute graft versus host disease following stem cell transplantation; experiment: prophylactic oral HD5 or hBD-2 in murine model of acute graft versus host disease (Example 15); type: in vivo, BALB/c mice
Experimental: To determine and assess the efficacy of prophylactic treatment with oral HD5 in a murine model of acute graft versus host disease following stem cell transplantation.
Treatment regime: 22 female BALB/c mice were irradiated with 4.5 Gy (2×498 sec) at intervals of at least 4 hours on day 0. Bone marrow was harvested: hind limbs harvested from 2 female WT C57BL/6 mice aseptically. Skeletal muscle was removed and epiphysis cut away. Lumen of bone flushed with PBS and cells pelleted and taken up. Harvest of T-cells: spleens from 2 female WT C57BL/6 mice were meshed through a […] cell strainer into a PBS filled dish. Cells were taken up in PBS and transferred into a 50 mL falcon tube and spun down. Cells were taken up in 1 mL PBS and 20 μL of CD4 microbead+20 μL CD8 microbeads per spleen added for incubation for 20 min at 4 degrees C. Cells were washed with PBS and applied to MACS separation in order to positively select CD4+ and CD8+ cells. Positively selected T-cells were counted and taken up. Transplantation: directly after the second irradiation, all WT BALB/c recipient mice were injected with 5×1.000.000 BM cells (50 μL) i.v. into the retroorbital venous plexus under isoflurane anesthesia. 22 BALB/c mice were treated with 1.2 mg of HD5/kg BW/day; 1.2 mg of hBD-2/kg BW/day or 100 μL of PBS per day vial oral gavage from day 0-10.
Survival was monitored for 60 days.

[5] = dexamethasone 1 mg/kg BID oral, hBD2 both IN doses (0.4 mg/kg/day TID and 1.7 mg/kg/day TID)
[6] = hBD2 both oral and intranasal TID on day 14, versus HDM challenged vehicle

Substance: human beta defensin 2 (GIGDPVTCLKSGAICHPVFCPRRYKQIGTCGLPGTKCCKKP; not fully specified (bridges); ends and bridges not checked; listed as Homo sapiens) [hBD2]
- histological score, compared with references ([1]; FIG. 16, hBD2 0.1 mg/kg versus dexamethasone 1 mg/kg and mouse anti TNF-α 300 μg/mouse): on par with dexamethasone 1 mg/kg and superior to mouse anti TNF-α 300 μg/mouse
- disease activity index (DAI) ([1]; hBD2 0.1 mg s.c. OD, Dexamethasone 1 mg/kg i.p. OD, day 8 to day 14): statistically significant effect on DAI
- histological score ([1]; hBD2 0.1 mg/kg s.c. OD, Dexamethasone 1 mg/kg i.p. OD, colon day 14): statistically significant effect on histological score; also recorded: statistical significant effect
- eosinophil counts in BALF [2, 5]: trend towards lowering of eosinophils
- macrophage counts in BALF [2, 5]: significantly inhibited
- neutrophil counts in BALF [2, 5]: significantly inhibited
- total cell counts in BALF [2, 5]: significantly inhibited
- IL-6 level in lung tissue homogenates ([2]; hBD2, both dosing routes): significant effects
- IL-10 level in lung tissue homogenates ([2]; hBD2, both dosing routes): significant effects
- airway resistance [2, 6]: effectively inhibited increase of airway resistance
- pulmonary compliance [2, 6]: effectively inhibited
- TNF-α level in lung tissue homogenates ([2]; intranasally administered hBD2): differed from the control but not significantly
- TNF-α level in lung tissue homogenates ([2]; perorally administered hBD2): significantly reduced TNF-α
- mortality ([3]; FIG. 56, 7 mice treated with oral hBD-2 for 10 days): statistically significant reduction of mortality
- weight loss following bone marrow transplantation ([3]; compared with PBS treated mice): lost statistically significantly less weight
- treated animals that had died by day 90 ([3]; oral hBD-2 1.2 mg/kg/day day 0-10 (n=7), cyclosporine 50 mg/kg on days 0, 3, 6 and 9 (n=7), all but one of PBS mice (n=6) died): 1
- mortality ([4]; FIG. 58, oral treatment for 10 days from day of stem cell transplantation): significant reduction of mortality
- treated animals that had died by day 60 ([4]; oral 1.2 mg/kg/day day 0-10, six out of eight PBS mice died): none
